Tested on: γ-Secretase
Assay: Cell-based ELISA assay of β-AP production by transfected H4 cells expressing β-APP (Swedish variant); reported as inhibition of γ-secretase
Details: β-AP in conditioned medium of transfected H4 (human neuroglioma) cells by ELISA, approximately 16 hours incubation, dose response
Description: Production and detection of β-AP made by cells in culture. The use of transfected H4 (human neuroglioma) cells stably expressing constructs containing wild-type and mutant forms of β-APP have been used to identify inhibitors of β-AP production. The Swedish variant of β-APP produces 5-7 fold more β-AP than the wild type and is typically used due to its enhanced signal. […] The capture antibody is typically a mouse monoclonal (lgG1/kβ-APPa). The antibody recognizes the carboxyl terminal epitope of β-AP. The specificity of the capture antibody ensures measurement of β-AP without interference by other secreted β-APP fragments that share amino acid sequence (β-AP1-16) with β-AP. […] In the cell-based assay conditioned medium from H4 cells is tested by ELISA for the quantity of β-AP present. […]
A typical ELISA-based assay requires plating of the transfected cells at a density sufficient for the rapid detection of the secreted β-AP (experimentally predetermined for a particular stable cell population) in a 96-well format. […] Incubation of the cells with the test agent will continue for approximately 16 hours at which time equal aliquots of media from each sample well is removed and placed into a previously prepared ELISA plate for β-AP quantitation. The ELISA is carried out in a manner described by others (Haass, et al., 1992; Hawlow and Lane, 1988) and the β-AP signal quantitated. […]

For “[αS-(αR*, γR*, δR*)] N-(2,2-dimethylpropyl)-γ-hydroxy-α-(1-methylethyl)-δ-[(4-methylpentyl)amino]cyclohexanehexanamide hydrochloride. [Example 31]”, the “Activity Rating” value was “+++ (+++ ⇐ 10)”.

From EP0778266A1, “5-Amino-6-cyclohexyl-4-hydroxy-hexanamide derivatives as inhibitors of beta-amyloid protein production” (BRISTOL-MYERS SQUIBB COMPANY, priority 1995, dated 1997)
